Measured values taken from patent US20230248833A1, “COMPOUND HAVING BTK KINASE DEGRADING ACTIVITY, AND PREPARATION METHOD AND PHARMACEUTICAL USE THEREFOR” (SICHUAN HAISCO PHARMACEUTICAL CO., LTD., priority 2020, published 2023).
Like-named read-outs stand apart in the source and are kept apart here.

Legend:
[1] = Pharmacokinetic experiment in rats; format: in vivo; conditions: male, SD, rat, plasma, po; for AUC(0-t): single dose
Experimental: Experimental objective: In this experiment, a single dose of each test compound was administered to SD rats intravenously and intragastrically, the concentrations of the test compound in plasma of rats were measured, and the pharmacokinetic characteristics and bioavailability of the test compound in rats were evaluated.
Experimental animals: Male SD rats, about 200 g, 6-8 weeks old, 6 rats/compound. Rats were purchased from Hunan SJA Laboratory Animal Co., Ltd, with the laboratory animal production license number of SCXK (Xiang) 2019-004.
Experimental method: On the day of the experiment, 6 SD rats were randomly grouped according to their body weight. The animals were fasted with water available for 12 to 14 hours one day before the administration of a test compound, and were fed 4 hours after the administration.
Before and after the administration, […] of blood was taken from the orbit of the rats under isoflurane anesthesia, and placed in an EDTAK2 centrifuge tube. Centrifugation was carried out at 5000 rpm at 4° C. for 10 min, and the plasma was collected.
Time points for sample collection in G1&G2 groups comprise
Before analysis and detection, all samples were stored at −80° C. The samples were detected by HPLC-MS/MS.

SU-DHL-6 cells = experiment: Inhibition of cell proliferation, SU-DHL-6 cells (Cell Viability Assay, 72 h); format: cell-based, human
Experimental: (§1) SU-DHL-4, Mino, and SU-DHL-6 cells, in the culture medium of RPMI1640+10% FBS, were cultured in an incubator at 37° C. under 5% CO2. Cells were plated in a 96-well plate. Specifically, SU-DHL-4 cells were at 20000/well, Mino and SU-DHL-6 cells were at 5000/well, with 90 μL/well. 10 μL of the compounds at different concentrations were added to each well. There were 3 replicate wells for each concentration, and the last column, added with DMSO, was used as a vehicle control group. The cultures were continued for 72 hours at 37° C. under 5% CO2. After 72 hours, 100 μL of detection reagent (Cell Viability Assay, Promega, G7573) was added to each well, and the cultures were uniformly mixed for 2 minutes, and incubated at room temperature for 10 minutes. The […] signal value was measured with a microplate reader (PHERAstar FSX). The IC50 value of the compound on cell proliferation inhibition was calculated using origin9.2 software, and the inhibition rate at the highest concentration of the compound (Max inhi.%) was calculated according to formula (1).
(§2) Max inhi.%=(1−T72administration/T72vehicle)×100 Formula (1).

Aiolos = target: T1, Aiolos (Homo sapiens, UniProt Q9UKT9); experiment: Detection of Aiolos degradation in Mino cells (automated western blot); format: cell-based; conditions: 48 hours
T1 construct: endogenous in cells; host or cells: Mino human mantle cell lymphoma cells (ATCC)
Experimental: Mino is a human mantle cell lymphoma cell line purchased from ATCC and cultured under the following conditions: RPMI-1640+15% FBS+1% double antibody in a 37° C., 5% CO2 incubator. Cells were plated in a 6-well plate, with 5×10^5 cells/well. After plating, the compounds at different concentrations were added and cultured in an incubator at 37° C. under 5% CO2 for 48 hours. After culturing, the cells were collected, and RIPA lysis buffer (Beyotime, Cat. P0013B) was added. The cells were lysed on ice for 15 minutes, and centrifuged at 12000 rpm at 4° C. for 10 minutes. The protein sample of the supernatant was collected, and the protein was quantified by using the BCA kit (Beyotime, Cat. P0009), and then the protein was diluted to 0.25 mg/mL. The expressions of Aiolos (CST, Cat. 15103S) and the internal reference GAPDH (CST, Cat. 5174S) were detected using a fully automated western blot quantitative analyzer (Proteinsimple). The expression level of Aiolos relative to the internal reference was calculated using Compass software, and the DC50 value was calculated using Origen9.2 software according to formula (5). Specifically, the Aiolosadministration denoted the expression level of Aiolos in administration groups at different doses, and the Aiolosvehicle denoted the expression level of Aiolos in the vehicle control group.
Aiolos %=Aiolosadministration/Aiolosvehicle×100% formula (5)

BTK protein = target: T2, BTK protein (Mus musculus, UniProt P35991); experiment: Detection of BTK protein degradation in spleen of mice; format: in vivo; conditions: po, female ICR mice, 3 consecutive days of intragastric administration, read-out: DD50 value of compounds on BTK protein degradation in spleen of mice
T2 construct: from tissue; host or cells: spleen of female ICR mice
Experimental: Female ICR mice, 6-8 weeks old, were purchased from BEIJING VITAL RIVER LABORATORY ANIMAL TECHNOLOGY CO., LTD, and the experiment was started after 3 days of adaptation. After 3 consecutive days of intragastric administration of different doses of the compound, the spleen of mice was taken, the spleen cells were collected, and RIPA lysis buffer (Beyotime, Cat. P0013B) was added. The cells were lysed on ice for 15 minutes, and centrifuged at 12000 rpm at 4° C. for 10 minutes. The protein sample of the supernatant was collected, and the protein was quantified by using the BCA kit (Beyotime, Cat. P0009), and then the protein was diluted to 0.25 mg/mL. The expressions of BTK (CST, Cat. 8547S) and the internal reference β-actin (CST, Cat. 3700S) were detected using a fully automated western blot quantitative analyzer (Proteinsimple). The expression level of BTK relative to the internal reference was calculated using Compass software, and the DD50 value was calculated using Origin9.2 software according to formula (4). Specifically, the BTKadministration denoted the expression level of BTK in administration groups at different doses, and the BTKvehicle denoted the expression level of BTK in the vehicle control group. BTK %=BTKadministration/BTKvehicle×100% formula (4)

BTK = target: T3, BTK (Homo sapiens, UniProt Q06187); experiment: Detection of BTK degradation in Mino cells (automated western blot); format: cell-based; conditions: 48 hours
T3 construct: endogenous in cells; host or cells: Mino human mantle cell lymphoma cells (ATCC)
Experimental: Mino human mantle cell lymphoma cell line was purchased from ATCC and cultured under the following conditions: RPMI-1640+15% FBS+1% double antibody in a 37° C., 5% CO2 incubator. Cells were plated in a 6-well plate, with 5×10^5 cells/well. After plating, the compounds at different concentrations were added and cultured in an incubator at 37° C. under 5% CO2 for 48 hours. After culturing, the cells were collected, and RIPA lysis buffer (Beyotime, Cat. P0013B) was added. The cells were lysed on ice for 15 minutes, and centrifuged at 12000 rpm at 4° C. for 10 minutes. The protein sample of the supernatant was collected, and the protein was quantified by using the BCA kit (Beyotime, Cat. P0009), and then the protein was diluted to 0.25 mg/mL. The expressions of BTK (CST, Cat. 8547S) and the internal reference β-actin (CST, Cat. 3700S) were detected using a fully automated western blot quantitative analyzer (Proteinsimple) with a kit (Protein simple, Cat. SM-W004). The expression level of BTK relative to the internal reference was calculated using Compass software, and the DC50 value was calculated using Origin9.2 software according to formula (3). Specifically, the BTKadministration denoted the expression level of BTK in administration groups at different doses, and the BTKvehicle denoted the expression level of BTK in the vehicle control group. […]

SU-DHL-4 cells = experiment: Inhibition of cell proliferation, SU-DHL-4 cells (Cell Viability Assay, 72 h); format: cell-based, human
Experimental: as §1, §2

Mino cells = experiment: Inhibition of cell proliferation, Mino cells (Cell Viability Assay, 72 h); format: cell-based, human; conditions: Homo sapiens, MINO, 72 h
Experimental: as §1, §2

[2] = target: T4, hERG potassium ion channel (Homo sapiens, UniProt Q12809); experiment: Effect on hERG potassium ion channel, manual patch-clamp in CHO cells; format: cell-based; conditions: CHO cells stably expressing hERG, whole cell patch-clamp, room temperature; read-out: IC50 value of inhibitory effect on hERG potassium channel current
T4 construct: expressed in transfected cells
Source text: Experimental platform: electrophysiological manual patch-clamp system
Cell line: Chinese hamster ovary (CHO) cells stably expressing hERG potassium ion channel
Experimental method: In CHO (Chinese Hamster Ovary) cells stably expressing hERG potassium channel, whole cell patch-clamp technique was used to recorded hERG potassium channel current at room temperature. The glass microelectrode is made of a glass electrode blank (BF150-86-10, Sutter) by a puller. The tip resistance after filling the liquid in the electrode is about 2-5 MQ. The glass microelectrode can be connected to the patch-clamp amplifier by inserting the glass microelectrode into an amplifier probe. The clamping voltage and data recording are controlled and recorded by the pClamp 10 software through a computer. The sampling frequency is 10 kHz, and the filtering frequency is 2 kHz. […]
Data analysis processing was carried out by using pClamp 10, GraphPad Prism 5 and Excel software. The inhibition degree of hERG potassium current (peak value of hERG tail current induced at −50 mV) at different compound concentrations was calculated by the following formula: […]
Compound IC50 was calculated using GraphPad Prism 5 software by fitting according to the following equation: […]

T4 sequence (Q12809 whole entry): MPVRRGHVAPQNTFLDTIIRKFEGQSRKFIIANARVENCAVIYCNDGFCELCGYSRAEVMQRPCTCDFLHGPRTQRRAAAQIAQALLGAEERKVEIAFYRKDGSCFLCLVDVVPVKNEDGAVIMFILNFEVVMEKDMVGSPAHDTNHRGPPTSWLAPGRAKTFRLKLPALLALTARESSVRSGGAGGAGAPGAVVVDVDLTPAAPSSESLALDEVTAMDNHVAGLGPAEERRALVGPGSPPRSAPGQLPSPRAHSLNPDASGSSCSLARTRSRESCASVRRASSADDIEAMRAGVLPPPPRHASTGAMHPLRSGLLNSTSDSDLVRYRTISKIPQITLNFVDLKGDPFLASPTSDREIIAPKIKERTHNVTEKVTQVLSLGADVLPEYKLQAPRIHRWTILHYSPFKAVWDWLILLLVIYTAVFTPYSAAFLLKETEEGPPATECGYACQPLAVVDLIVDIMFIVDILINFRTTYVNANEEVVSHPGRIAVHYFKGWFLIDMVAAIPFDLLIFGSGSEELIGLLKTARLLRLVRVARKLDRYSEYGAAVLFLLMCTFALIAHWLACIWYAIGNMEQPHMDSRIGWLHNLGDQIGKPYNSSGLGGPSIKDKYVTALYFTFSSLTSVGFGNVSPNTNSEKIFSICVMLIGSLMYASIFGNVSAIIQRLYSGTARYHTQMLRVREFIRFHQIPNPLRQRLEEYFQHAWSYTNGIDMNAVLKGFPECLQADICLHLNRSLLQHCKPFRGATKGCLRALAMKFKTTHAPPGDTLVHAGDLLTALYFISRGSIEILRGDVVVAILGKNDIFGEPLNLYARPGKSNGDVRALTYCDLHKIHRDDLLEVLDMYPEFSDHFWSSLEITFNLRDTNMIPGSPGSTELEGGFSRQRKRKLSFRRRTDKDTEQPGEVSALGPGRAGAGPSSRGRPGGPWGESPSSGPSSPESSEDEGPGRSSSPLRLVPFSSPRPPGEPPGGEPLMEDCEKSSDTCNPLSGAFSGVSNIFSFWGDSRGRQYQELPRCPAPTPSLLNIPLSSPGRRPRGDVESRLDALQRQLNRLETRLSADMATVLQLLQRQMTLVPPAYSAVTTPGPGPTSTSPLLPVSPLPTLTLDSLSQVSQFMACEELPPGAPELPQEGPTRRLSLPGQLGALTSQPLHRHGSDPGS
T1 sequence (Q96SW2 whole entry partner): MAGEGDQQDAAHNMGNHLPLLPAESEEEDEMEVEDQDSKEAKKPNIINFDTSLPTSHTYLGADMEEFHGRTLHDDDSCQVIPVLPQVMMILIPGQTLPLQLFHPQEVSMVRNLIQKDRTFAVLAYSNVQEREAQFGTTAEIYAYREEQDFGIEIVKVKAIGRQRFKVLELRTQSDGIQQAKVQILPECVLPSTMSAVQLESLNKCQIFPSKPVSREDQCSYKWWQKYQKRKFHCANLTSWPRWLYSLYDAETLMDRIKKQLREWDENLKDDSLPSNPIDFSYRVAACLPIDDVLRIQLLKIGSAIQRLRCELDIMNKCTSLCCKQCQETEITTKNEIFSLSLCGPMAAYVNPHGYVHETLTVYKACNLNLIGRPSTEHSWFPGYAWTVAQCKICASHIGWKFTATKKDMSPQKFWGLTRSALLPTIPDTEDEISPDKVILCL
T1 sequence (Q16531 whole entry partner): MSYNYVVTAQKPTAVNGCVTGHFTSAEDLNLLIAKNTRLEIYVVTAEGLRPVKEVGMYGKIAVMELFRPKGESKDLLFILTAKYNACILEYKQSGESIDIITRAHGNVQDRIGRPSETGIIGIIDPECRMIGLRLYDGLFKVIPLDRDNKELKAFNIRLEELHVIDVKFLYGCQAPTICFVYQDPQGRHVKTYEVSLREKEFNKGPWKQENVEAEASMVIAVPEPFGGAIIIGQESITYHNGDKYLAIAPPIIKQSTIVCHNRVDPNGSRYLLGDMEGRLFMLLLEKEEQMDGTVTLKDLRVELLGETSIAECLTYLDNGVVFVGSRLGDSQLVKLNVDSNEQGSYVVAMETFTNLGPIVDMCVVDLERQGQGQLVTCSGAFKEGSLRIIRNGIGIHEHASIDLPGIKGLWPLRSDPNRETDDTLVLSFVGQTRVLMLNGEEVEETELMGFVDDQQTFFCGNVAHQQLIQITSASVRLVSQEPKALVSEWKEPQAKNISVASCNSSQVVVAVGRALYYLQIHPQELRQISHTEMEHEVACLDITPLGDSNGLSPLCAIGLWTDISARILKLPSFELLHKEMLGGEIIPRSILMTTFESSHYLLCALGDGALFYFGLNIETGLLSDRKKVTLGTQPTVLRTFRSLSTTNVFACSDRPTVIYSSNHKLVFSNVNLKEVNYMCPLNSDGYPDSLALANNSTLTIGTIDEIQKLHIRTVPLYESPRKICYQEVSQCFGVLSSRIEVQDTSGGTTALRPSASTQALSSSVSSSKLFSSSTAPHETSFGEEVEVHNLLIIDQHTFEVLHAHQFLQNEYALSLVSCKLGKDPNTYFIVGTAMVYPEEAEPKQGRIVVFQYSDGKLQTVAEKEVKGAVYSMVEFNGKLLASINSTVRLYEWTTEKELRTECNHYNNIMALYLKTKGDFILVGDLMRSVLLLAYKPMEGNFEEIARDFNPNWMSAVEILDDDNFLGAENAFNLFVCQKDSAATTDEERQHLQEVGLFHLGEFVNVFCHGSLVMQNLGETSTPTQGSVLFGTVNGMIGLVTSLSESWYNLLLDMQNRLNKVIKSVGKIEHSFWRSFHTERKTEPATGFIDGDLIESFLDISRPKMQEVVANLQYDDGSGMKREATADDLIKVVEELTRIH
T1 sequence (Q9UKT9 whole entry): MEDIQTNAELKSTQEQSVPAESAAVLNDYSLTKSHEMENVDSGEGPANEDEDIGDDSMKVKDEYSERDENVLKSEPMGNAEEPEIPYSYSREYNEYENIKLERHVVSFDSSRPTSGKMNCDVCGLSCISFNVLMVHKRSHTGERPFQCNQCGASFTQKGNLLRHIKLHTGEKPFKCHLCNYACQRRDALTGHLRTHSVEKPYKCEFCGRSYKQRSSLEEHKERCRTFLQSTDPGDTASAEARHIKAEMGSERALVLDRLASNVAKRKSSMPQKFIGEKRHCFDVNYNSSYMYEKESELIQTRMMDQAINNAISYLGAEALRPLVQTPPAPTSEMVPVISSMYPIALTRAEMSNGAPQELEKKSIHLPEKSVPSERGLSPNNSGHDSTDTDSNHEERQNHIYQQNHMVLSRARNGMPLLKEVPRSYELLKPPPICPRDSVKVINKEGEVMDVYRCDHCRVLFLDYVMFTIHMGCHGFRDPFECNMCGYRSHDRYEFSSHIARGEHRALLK
T2 sequence (P35991 whole entry): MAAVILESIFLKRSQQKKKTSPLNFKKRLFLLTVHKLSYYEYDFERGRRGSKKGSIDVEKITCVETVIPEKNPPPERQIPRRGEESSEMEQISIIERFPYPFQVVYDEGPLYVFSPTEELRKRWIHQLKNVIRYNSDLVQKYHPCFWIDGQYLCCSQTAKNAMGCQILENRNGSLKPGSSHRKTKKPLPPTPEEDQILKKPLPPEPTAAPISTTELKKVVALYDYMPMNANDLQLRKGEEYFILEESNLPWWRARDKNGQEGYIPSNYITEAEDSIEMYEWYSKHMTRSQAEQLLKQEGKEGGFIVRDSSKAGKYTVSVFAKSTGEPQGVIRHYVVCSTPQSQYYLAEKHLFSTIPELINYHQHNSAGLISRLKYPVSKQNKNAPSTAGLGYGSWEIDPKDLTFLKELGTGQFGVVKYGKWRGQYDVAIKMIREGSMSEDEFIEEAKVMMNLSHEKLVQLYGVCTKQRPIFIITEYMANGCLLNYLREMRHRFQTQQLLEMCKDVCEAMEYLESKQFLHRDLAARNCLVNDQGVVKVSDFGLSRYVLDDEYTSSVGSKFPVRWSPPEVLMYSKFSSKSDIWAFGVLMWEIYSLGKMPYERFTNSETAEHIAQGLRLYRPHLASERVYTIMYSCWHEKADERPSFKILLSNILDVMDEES
T3 sequence (Q06187 whole entry): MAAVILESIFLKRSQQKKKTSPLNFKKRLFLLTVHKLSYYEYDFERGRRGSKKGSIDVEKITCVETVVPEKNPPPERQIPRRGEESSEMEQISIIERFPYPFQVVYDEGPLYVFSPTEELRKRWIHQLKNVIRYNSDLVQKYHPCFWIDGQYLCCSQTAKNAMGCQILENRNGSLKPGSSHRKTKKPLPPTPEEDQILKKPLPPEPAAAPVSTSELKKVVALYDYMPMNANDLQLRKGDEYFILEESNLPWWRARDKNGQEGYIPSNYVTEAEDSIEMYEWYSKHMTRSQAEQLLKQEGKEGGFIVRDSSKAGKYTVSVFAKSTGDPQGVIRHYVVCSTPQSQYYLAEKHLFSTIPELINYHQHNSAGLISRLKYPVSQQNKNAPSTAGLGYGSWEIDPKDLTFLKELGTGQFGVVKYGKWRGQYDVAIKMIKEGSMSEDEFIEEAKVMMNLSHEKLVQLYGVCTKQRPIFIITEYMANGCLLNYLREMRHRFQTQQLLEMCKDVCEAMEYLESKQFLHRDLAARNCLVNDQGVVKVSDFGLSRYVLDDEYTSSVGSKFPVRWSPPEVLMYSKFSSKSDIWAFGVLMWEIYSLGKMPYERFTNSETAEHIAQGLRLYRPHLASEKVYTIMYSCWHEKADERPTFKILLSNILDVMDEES

Nc1ncnc2c1c(-c1ccc(Oc3ccccc3)cc1)nn2C1CCN(C2CN(CC3CN(c4ccc5c(c4)C(=O)N(C4CCC(=O)NC4=O)C5=O)C3)C2)CC1 (centres unmarked) [Compound 85, 5-(3-((3-(4-(4-amino-3-(4-phenoxyphenyl)-1H-pyrazolo[3,4-d]pyrimidin-1-yl)piperidin-1-yl)azetidin-1-yl)methyl)azetidin-1-yl)-2-(2,6-dioxopiperidin-3-yl)isoindoline-1,3-dione] gave a bioavailability ([1]; i.g. (20 mg/kg), bioavailability) of 17.4 ± 5.6%, an AUC(0-t) ([1]; i.g. (20 mg/kg)) of 3030 ± 982 ng·h/mL and an IC50 (SU-DHL-6 cells) of 26 nM. The DC50 (Aiolos) was at least 1000 nM, the ED50 (BTK protein) was 3.3 mg/kg and the DC50 (BTK) was 1.6 nM. It also gave an IC50 (SU-DHL-4 cells) of 624 nM, an IC50 (SU-DHL-4 cells; listed as compound 85) of 10 to 1000 nM and an IC50 (Mino cells) of 32 nM.

With Nc1ncnc2c1c(-c1ccc(Oc3ccccc3)cc1)nn2[C@H]1CCN(C2CN(CC3(F)CN(c4cc5c(cc4F)C(=O)N(C4CCC(=O)NC4=O)C5=O)C3)C2)C[C@H]1F (stereo partly drawn) [Compound 113, 5-(3-((3-((3R,4S)-4-(4-amino-3-(4-phenoxyphenyl)-1H-pyrazolo[3,4-d]pyrimidin-1-yl)-3-fluoropiperidin-1-yl)azetidin-1-yl)methyl)-3-fluoroazetidin-1-yl)-2-(2,6-dioxopiperidin-3-yl)-6-fluoroisoindoline-1,3-dione] the AUC(0-t) ([1]; i.g. (20 mg/kg)) was 3820 ± 811 ng·h/mL, the IC50 (SU-DHL-6 cells; Homo sapiens, SU-DHL-6, 72 h) was 100 nM and the IC50 [2] was over 40000 nM. For the same compound, the IC50 (Mino cells) was 61 nM.

Nc1ncnc2c1c(-c1ccc(Oc3ccccc3)cc1)nn2C1CCN(C2CN(CC3(F)CN(c4cc5c(cc4F)C(=O)N(C4CCC(=O)NC4=O)C5=O)C3)C2)CC1 (centres unmarked) [Compound 115, 5-(3-((3-(4-(4-amino-3-(4-phenoxyphenyl)-1H-pyrazolo[3,4-d]pyrimidin-1-yl)piperidin-1-yl)azetidin-1-yl)methyl)-3-fluoroazetidin-1-yl)-2-(2,6-dioxopiperidin-3-yl)-6-fluoroisoindoline-1,3-dione] showed an AUC(0-t) ([1]; i.g. (20 mg/kg)) of 5820 ± 2260 ng·h/mL, an IC50 (SU-DHL-6 cells; Homo sapiens, SU-DHL-6, 72 h) of 133 nM and an IC50 [2] of over 40000 nM. For the same compound, the IC50 (Mino cells) was 166 nM.

Compound Nc1ncnc2c1c(-c1ccc(Oc3ccccc3)cc1)nn2C1CCN(C2CN(CC3(F)CCN(c4ccc5c(c4)C(=O)N(C4CCC(=O)NC4=O)C5=O)CC3)C2)CC1 (centres unmarked) [Compound 118, 5-(4-((3-(4-(4-amino-3-(4-phenoxyphenyl)-1H-pyrazolo[3,4-d]pyrimidin-1-yl)piperidin-1-yl)azetidin-1-yl)methyl)-4-fluoropiperidin-1-yl)-2-(2,6-dioxopiperidin-3-yl)isoindoline-1,3-dione] has an AUC(0-t) ([1]; i.g. (20 mg/kg)) of 2080 ± 985 ng·h/mL, an IC50 (SU-DHL-6 cells; Homo sapiens, SU-DHL-6, 72 h) of 50 nM and an IC50 (Mino cells) of 52 nM.

With Nc1ncnc2c1c(-c1ccc(Oc3ccccc3)cc1)nn2C1CCN(C2CN(CC3CCN(c4ccc5c(c4)C(=O)N(C4CCC(=O)NC4=O)C5=O)CC3)C2)CC1 (centres unmarked) [Trifluoroacetate of compound 98, 5-(4-((3-(4-(4-amino-3-(4-phenoxyphenyl)-1H-pyrazolo[3,4-d]pyrimidin-1-yl)piperidin-1-yl)azetidin-1-yl)methyl)piperidin-1-yl)-2-(2,6-dioxopiperidin-3-yl)isoindoline-1,3-dione] the AUC(0-t) ([1]; i.g. (20 mg/kg)) was 347 ± 55 ng·h/mL, the IC50 (SU-DHL-6 cells; Homo sapiens, SU-DHL-6, 72 h) was 12 nM and the IC50 (Mino cells) was 20 nM.

Work on Nc1ncnc2c1c(-c1ccc(Oc3ccccc3)cc1)nn2C1CCN(C2CN(CC3CCN(c4ccc5c(c4)C(=O)N(C4CCC(=O)NC4=O)C5=O)C3)C2)CC1 (centres unmarked) [Trifluoroacetate of compound 99, 5-(3-((3-(4-(4-amino-3-(4-phenoxyphenyl)-1H-pyrazolo[3,4-d]pyrimidin-1-yl)piperidin-1-yl)azetidin-1-yl)methyl)pyrrolidine-1-yl)-2-(2,6-dioxopiperidin-3-yl)isoindoline-1,3-dione] yielded an AUC(0-t) ([1]; i.g. (5 mg/kg)) of 504 ± 131 ng·h/mL, an IC50 (SU-DHL-6 cells; Homo sapiens, SU-DHL-6, 72 h) of 24 nM and an IC50 (Mino cells) of 21 nM.
